Tested on: co-culture of HLA-A2 positive monocytes and HLA-A2 negative HUVECs
Experiment: Co-culture of PBMC-derived monocytes with HUVECs: endothelial incorporation of monocyte-derived EC-like cells (flow cytometry, HLA-A2)
Type: cell-based, human
Details: day 3; for proportion of HLA-A2 positive cells of the total cell population: no apoA-I control about 15%; for endothelial incorporation of HLA-A2 positive monocyte-derived endothelial-like cells into the HUVECs layer (effect in words): apoA-I 0.25, 0.5 and 2.0 mg/ml
Experimental: Human umbilical vein ECs (HUVEC) were isolated from human umbilical veins using collagenase digestion. Briefly, umbilical cords from normal or caesarean deliveries are collected and perfused with Ca^2+ and Mg^2+-free phosphate buffer saline (PBS). HUVECs were removed by short treatment at 37° C. with collagenase solution (0.1% in PBS with Ca^2+ and Mg^2+). HUVECS were cultured and expanded for use in investigation at no later than passage 4. Cells were grown under standard culture conditions of 37° C. in a 95% air/5% CO2 atmosphere in M199 media (Cell Applications or Invitrogen Australia) supplemented with 10% foetal bovine serum (FBS; Trace Bioscience, or Invitrogen Australia) or with 10% heat-inactivated human serum and with a D-glucose concentration of 5.0 mM. The human serum was obtained from healthy donors within 7 days of the experiment. The human serum was filtered with 0.22 μm PES membrane (Millipore) and heat inactivated at 56° C. for 30 minutes.
The ECs were screened for human leucocyte antigen-A2 type (HLA-A2) expression with direct immunofluorescence and flow cytometry (Beckman Coulter). The batches of HUVEC cells that were HLA-A2 negative were used in these investigations. Alternatively, batches of HACECs that are HLA-A2 negative are used in these investigations. The batches of HLA-A2 negative HUVECs preferably at second passage were grown to approximately 75% sub-confluence on 6-wells cell culture plates (Becton Dickinson Labware, growth area 9.6 cms^2 per well) at a density varying from 10,000 to 500,000 cells per well 24 hours before the co-culture. Usually a density of 500,000 cells per well is needed to achieve a fully confluent layer of HUVECS. Alternatively, batches of HLA-A2 negative HCAECs preferably at second passage are grown to approximately 75% sub-confluence on 6-wells cell culture plates (Bectin Dickinson Labware).
Fresh peripheral blood mononuclear cells (PBMCs) were obtained from venous blood of healthy HLA-A2 positive donors (n=5) by gradient centrifugation on Lymphoprep in a hypertonic medium (Lymphoprep™) and immediately seeded onto HUVECs. Alternatively, the PBMCs are immediately seeded onto HCAECs layers at densities ranging from 0.25 to 2×10^6 cells per well. […] The co-cultured cell layer containing HUVECs were detached at multiple time points between day 0 and day 6 by addition of 20 μl of detachment solution containing 0.12% trypsin and analyzed by direct immunofluoresence and flow cytometry inter alia for expression of cell surface markers. […]
Expression of cell surface markers was analyzed by two-colors direct immunofluoresence and flow cytometry (Cytomics FC500, Beckman Coulter). […]

apolipoprotein A-I [apoA-I]
proportion of HLA-A2 positive cells of the total cell population (0.5 mg/ml apoA-I in co-culture, t test P<0.01): about 33%
proportion of HLA-A2 positive cells of the total cell population (2.0 mg/ml apoA-I in co-culture): about 37%
endothelial incorporation of HLA-A2 positive monocyte-derived endothelial-like cells into the HUVECs layer (effect in words): dose dependent increase
endothelial incorporation of HLA-A2 positive monocyte-derived endothelial-like cells into the HUVECs layer (effect in words) (listed as ApoA-I): increased endothelial incorporation
